Results: paper PMC9862037, “Interactions of Mycotoxin Alternariol with Cytochrome P450 Enzymes and OATP Transporters” (Metabolites, 2022)
Where two headings read alike, the source gives them in different places.

What was measured:
OATP1B1 = OATP1B1 (Homo sapiens, UniProt Q9Y6L6); format: cell-based; design: expressed in transfected cells
Protocol: The assays were performed as described recently. Cells were seeded on 96-well plates one day prior to the measurement. After washing three times with PBS at room temperature, cells were incubated for 15 min with 8-acetoxy-1,3,6-trisulfopyrene (Ace, 5 µM). After this “preloading” stage, the supernatant was removed, and the cells were incubated with the same amount of the probe (Counterflow assay) or without the probe in buffer pH 5.5 (Efflux assay) in the absence and the presence of AOH for further 20 min. Fixed concentrations of AOH were selected based on the IC50 values determined in the transport inhibition assay. […]. Cells were washed three times with ice-cold PBS, then NaOH solution (0.1 N, 200 µL/well) was added. After 20 min, fluorescence was measured with an Enspire plate reader in Ex/Em wavelengths 460/510 nm. Bottom reading was applied with two horizontal (X) and two vertical (Y) points, measurement height was 3 mm with 200 flashes. Fluorescence was compared to the preloaded control incubated with Ace alone, considered as 100%.

CYP3A4 = details: read-out: IC50, CYP3A4-catalyzed midazolam hydroxylation, cited from earlier work
CYP2C9 = details: read-out: IC50, CYP2C9-catalyzed tolbutamide hydroxylation; cited from earlier work
CYP2D6 = details: read-out: IC50, CYP2D6-mediated dextromethorphan O-demethylation; cited from earlier work

Sequence of OATP1B1 (Q9Y6L6 whole entry): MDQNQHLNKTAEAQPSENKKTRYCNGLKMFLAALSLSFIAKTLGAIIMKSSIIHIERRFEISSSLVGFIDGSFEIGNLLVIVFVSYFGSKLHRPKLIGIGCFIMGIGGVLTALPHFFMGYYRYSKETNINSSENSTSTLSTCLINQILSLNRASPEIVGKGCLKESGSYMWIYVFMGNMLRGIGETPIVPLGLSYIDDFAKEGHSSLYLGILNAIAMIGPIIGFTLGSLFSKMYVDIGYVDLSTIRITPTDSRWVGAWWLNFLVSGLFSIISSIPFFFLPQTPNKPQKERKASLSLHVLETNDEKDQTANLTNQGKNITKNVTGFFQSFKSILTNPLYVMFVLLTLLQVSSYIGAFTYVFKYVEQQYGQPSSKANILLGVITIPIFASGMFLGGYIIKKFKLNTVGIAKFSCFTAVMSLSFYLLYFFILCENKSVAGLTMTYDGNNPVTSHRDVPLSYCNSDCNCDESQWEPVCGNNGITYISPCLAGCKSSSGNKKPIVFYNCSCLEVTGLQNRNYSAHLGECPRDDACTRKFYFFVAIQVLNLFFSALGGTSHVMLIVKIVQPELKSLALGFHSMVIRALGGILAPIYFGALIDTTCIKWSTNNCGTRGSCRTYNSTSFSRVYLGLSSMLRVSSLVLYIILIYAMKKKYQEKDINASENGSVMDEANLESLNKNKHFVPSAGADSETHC

C=O [formaldehyde]
fluorescence signal in the CCF (OATP1B1): no change in the fluorescence
effect on efflux of the probe (OATP1B1; pH 5.5): blocks the efflux

CC(=O)OC[C@]12C[C@H](OC(=O)CC(C)C)C(C)=C[C@H]1O[C@@H]1[C@H](O)[C@@H](OC(C)=O)[C@@]2(C)[C@]12CO2 [T-2 toxin]
IC50 (CYP3A4): 27 µM

C[C@H]1CCCC(=O)CCC/C=C/c2cc(O)cc(O)c2C(=O)O1 [Zearalenone]
IC50 (CYP3A4; in vitro): 1.1 µM
IC50 (CYP2C9): 0.54 µM
IC50 (CYP2D6): 55.4 µM
